ChEMBL document CHEMBL1201862, “PubChem BioAssay data set” (2004)
Blank lines part the entries; values can stand above or below the compound they belong to. The source made the active and inactive calls.

Columns and labels:
[1] = target: Latent membrane protein 1 (Human herpesvirus 4 (strain B95-8), UniProt P03230); experiment: TES1-eGFP NF-kB reporter inhibition versus Tet-On dsRED, dose response, selectivity assay for LMP1 NF-kB inhibitor project, imaging, HEK293T, dual-color eGFP/dsRED, cherry-picks (AID 588398); format: functional, cell-based
[2] = target: T1, Sentrin-specific protease 8 (Homo sapiens, UniProt Q96LD8); experiment: SENP8 protease inhibitors, SAR follow-up, biochemical, luminescence (AID 504501); format: functional
T1 sequence (Q96LD8 whole entry): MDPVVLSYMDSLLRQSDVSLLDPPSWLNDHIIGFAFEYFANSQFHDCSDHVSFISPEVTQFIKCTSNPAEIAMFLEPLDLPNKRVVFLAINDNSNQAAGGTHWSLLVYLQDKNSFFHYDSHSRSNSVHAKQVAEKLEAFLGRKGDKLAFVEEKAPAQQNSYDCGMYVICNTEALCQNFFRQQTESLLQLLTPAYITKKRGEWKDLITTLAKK

Caspase-3 [3] = target: T2, Caspase-3 (Homo sapiens, UniProt P42574); experiment: caspase-3 inhibitors as off-family protease, SAR follow-up, selectivity assay for SENP protease inhibitor project, biochemical, luminescence, set 2 (AID 588599); format: functional
T2 sequence (P42574 whole entry): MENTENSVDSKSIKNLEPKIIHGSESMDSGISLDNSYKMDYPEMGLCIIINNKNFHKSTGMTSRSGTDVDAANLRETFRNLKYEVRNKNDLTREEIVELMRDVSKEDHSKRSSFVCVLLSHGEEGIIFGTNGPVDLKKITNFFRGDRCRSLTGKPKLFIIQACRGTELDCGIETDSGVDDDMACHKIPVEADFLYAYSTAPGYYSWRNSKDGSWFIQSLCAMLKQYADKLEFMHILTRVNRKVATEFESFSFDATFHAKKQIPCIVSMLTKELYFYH

[4] = target: T1, Sentrin-specific protease 8; experiment: SENP8 protease inhibitors, SAR follow-up, biochemical, luminescence, set 2 (AID 588601); format: functional
Caspase-3 [5] = target: T2, Caspase-3; experiment: SAR Analysis of small molecule inhibitors of Sentrin-specific proteases (SENPs) using a Caspase-3 Selectivity assay. [Related pubchem assays (depositor defined):AID2540, AID2599, AID434973, AID489001]; format: functional
[6] = target: T3, Sentrin-specific protease 6 (Homo sapiens, UniProt Q9GZR1); experiment: SAR Analysis of small molecule inhibitors of Sentrin-specific protease 6 (SENP6) using a Luminescent assay. [Related pubchem assays (depositor defined):AID2582, AID2599]; format: functional
T3 sequence (Q9GZR1 whole entry): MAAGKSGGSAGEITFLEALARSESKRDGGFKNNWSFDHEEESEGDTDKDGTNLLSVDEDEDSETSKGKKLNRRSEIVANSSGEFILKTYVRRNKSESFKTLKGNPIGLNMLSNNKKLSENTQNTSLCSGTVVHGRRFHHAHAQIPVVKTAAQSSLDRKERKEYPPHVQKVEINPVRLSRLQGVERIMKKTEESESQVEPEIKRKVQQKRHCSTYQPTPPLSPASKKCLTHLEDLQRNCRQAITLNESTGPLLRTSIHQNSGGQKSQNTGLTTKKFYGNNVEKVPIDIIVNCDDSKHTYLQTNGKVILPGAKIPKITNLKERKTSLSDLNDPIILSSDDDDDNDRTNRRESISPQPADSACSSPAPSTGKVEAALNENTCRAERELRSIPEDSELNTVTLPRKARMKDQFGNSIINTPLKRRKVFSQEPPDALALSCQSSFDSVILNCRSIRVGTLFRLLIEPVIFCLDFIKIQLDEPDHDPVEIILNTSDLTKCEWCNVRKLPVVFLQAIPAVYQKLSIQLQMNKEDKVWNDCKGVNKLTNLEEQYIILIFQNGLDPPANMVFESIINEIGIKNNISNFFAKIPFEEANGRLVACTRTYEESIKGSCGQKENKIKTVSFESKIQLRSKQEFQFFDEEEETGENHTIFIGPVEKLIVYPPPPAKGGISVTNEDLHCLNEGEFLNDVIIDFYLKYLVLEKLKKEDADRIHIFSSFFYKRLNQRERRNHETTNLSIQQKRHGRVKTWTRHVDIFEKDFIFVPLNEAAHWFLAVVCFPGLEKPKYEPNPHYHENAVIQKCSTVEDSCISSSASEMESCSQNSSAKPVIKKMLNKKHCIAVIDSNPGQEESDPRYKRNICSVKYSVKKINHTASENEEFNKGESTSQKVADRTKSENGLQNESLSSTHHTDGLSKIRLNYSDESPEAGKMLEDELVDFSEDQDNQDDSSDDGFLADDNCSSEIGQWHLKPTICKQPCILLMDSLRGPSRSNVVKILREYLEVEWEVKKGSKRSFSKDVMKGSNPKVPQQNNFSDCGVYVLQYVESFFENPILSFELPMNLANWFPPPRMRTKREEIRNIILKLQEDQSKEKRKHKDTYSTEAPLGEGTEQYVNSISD

[7] = target: T3, Sentrin-specific protease 6; experiment: SENP6 protease inhibitors, SAR follow-up, biochemical, luminescence, set 2 (AID 588598); format: functional
[8] = target: T4, Sentrin-specific protease 7 (Homo sapiens, UniProt Q9BQF6); experiment: SENP7 protease inhibitors, SAR follow-up, biochemical, luminescence (AID 504497); format: functional
T4 sequence (Q9BQF6 whole entry): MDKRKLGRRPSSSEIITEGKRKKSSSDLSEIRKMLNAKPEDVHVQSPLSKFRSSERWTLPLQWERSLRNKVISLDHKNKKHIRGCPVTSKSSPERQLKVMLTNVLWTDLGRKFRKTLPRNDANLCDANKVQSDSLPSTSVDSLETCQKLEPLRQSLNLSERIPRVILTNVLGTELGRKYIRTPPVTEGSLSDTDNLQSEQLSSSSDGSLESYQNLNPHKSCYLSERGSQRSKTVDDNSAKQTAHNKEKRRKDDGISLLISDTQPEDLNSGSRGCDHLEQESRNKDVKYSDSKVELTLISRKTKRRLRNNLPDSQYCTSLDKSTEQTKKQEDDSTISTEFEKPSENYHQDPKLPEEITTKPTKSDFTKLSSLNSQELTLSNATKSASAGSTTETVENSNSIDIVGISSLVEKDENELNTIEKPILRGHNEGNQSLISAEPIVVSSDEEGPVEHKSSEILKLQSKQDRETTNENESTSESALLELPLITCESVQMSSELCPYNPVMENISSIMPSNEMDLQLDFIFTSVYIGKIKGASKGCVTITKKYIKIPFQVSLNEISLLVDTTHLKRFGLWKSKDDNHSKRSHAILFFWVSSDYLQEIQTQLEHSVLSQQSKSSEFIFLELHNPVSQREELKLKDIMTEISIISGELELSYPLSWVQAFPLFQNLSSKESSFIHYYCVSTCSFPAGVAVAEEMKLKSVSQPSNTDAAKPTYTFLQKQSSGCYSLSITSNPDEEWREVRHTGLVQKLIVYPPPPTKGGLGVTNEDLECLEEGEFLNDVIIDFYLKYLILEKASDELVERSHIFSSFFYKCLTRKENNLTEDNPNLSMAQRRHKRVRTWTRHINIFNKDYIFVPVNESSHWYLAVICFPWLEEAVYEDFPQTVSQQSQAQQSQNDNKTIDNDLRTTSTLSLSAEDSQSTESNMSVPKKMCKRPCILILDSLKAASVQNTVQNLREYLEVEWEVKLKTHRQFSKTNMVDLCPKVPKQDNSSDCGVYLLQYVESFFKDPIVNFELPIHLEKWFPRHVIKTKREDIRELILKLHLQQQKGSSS

HEK293 = experiment: inhibitors of LMP1-driven NF-kB reporter, dose response, cell-based, HEK293, luciferase, cherry-pick (AID 588343); format: functional; settings: Homo sapiens
[9] = Shn3 3'UTR reporter inhibitors, dose response, cell-based, Clone20 osteoblasts, firefly luciferase, cherry-picked (AID 624132); format: functional;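 note: firefly luciferase luminescence from reporter carrying the Shn3 3'UTR in osteoblasts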
[10] = HepG2 cell cytotoxicity, dose response, cytotoxicity control for Shn3 inhibitor project, CellTiter-Glo, cherry-picked (AID 624134); format: functional, cell-based
[11] = control 3'UTR Renilla luciferase suppression, dose response, counter-screen for Shn3 inhibitor project, cell-based, Clone20-Shn3RL, cherry-picked (AID 624133); format: functional
[12] = HEK293T cell cytotoxicity, dose response, cytotoxicity control for HIV Vif inhibitor project, cherry-picks (AID 652208); format: functional, cell-based
[13] = A549 cell cytotoxicity, dose response, cytotoxicity control, plate reader, cherry-pick, antagonist series (AID 743412); format: functional, cell-based
[14] = HepG2 cell cytotoxicity, dose response, cytotoxicity control, plate reader, cherry-pick, antagonist series (AID 743416); format: functional, cell-based
[15] = LGR2 antagonists, dose response, cell-based, HEK293, CRE-luciferase reporter, cherry pick, set 2 (AID 743343); format: functional;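 note: transfected cells were stimulated with diluted bursicon conditioned medium after compound addition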
[16] = HEK293 cell cytotoxicity, dose response, cytotoxicity control, plate reader, cherry-picked samples (AID 743446); format: functional, cell-based
Phospholipase D1 = target: T5, Phospholipase D1 (Homo sapiens, UniProt Q13393); experiment: PLD1 inhibitor potency in cells, dose response (AID 602151); format: functional;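 note: cellular PLD1 assay in Calu-1 cells stimulated with PMA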
T5 sequence (Q13393 whole entry): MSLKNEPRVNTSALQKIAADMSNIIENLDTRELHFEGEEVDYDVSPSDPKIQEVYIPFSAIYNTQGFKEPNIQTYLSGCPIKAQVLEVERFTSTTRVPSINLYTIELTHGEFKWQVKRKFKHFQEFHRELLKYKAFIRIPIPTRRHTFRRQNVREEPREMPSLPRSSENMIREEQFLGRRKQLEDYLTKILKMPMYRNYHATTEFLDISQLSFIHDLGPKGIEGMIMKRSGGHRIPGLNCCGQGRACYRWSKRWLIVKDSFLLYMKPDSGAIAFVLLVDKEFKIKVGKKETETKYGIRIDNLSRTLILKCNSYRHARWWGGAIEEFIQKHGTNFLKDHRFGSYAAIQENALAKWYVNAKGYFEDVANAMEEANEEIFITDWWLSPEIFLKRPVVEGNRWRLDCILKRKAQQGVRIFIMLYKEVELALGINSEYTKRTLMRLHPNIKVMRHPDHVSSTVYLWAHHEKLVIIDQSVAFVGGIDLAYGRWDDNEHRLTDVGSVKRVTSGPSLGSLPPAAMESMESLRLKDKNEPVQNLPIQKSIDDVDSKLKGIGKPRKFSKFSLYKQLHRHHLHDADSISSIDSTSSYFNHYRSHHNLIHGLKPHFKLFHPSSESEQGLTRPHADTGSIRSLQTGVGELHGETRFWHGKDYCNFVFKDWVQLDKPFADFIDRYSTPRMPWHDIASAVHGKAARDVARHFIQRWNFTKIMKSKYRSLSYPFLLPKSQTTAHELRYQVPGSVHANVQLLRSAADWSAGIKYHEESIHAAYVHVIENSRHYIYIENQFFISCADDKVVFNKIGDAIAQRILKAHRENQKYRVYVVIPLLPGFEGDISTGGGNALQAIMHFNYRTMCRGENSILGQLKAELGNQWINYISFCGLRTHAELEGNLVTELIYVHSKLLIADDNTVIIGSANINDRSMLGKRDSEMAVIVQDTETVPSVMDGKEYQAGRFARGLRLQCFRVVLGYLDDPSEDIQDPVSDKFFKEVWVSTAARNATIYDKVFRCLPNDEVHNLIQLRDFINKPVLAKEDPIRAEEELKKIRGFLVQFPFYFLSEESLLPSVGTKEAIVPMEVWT

Phospholipase D2 = Phospholipase D2 (Homo sapiens, UniProt O14939); experiment: PLD2 inhibitor potency in cells, dose response (AID 602147); format: functional;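 note: cellular assay in HEK293 cells overexpressing GFP-tagged PLD2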
Chain of Phospholipase D2 (O14939 whole entry): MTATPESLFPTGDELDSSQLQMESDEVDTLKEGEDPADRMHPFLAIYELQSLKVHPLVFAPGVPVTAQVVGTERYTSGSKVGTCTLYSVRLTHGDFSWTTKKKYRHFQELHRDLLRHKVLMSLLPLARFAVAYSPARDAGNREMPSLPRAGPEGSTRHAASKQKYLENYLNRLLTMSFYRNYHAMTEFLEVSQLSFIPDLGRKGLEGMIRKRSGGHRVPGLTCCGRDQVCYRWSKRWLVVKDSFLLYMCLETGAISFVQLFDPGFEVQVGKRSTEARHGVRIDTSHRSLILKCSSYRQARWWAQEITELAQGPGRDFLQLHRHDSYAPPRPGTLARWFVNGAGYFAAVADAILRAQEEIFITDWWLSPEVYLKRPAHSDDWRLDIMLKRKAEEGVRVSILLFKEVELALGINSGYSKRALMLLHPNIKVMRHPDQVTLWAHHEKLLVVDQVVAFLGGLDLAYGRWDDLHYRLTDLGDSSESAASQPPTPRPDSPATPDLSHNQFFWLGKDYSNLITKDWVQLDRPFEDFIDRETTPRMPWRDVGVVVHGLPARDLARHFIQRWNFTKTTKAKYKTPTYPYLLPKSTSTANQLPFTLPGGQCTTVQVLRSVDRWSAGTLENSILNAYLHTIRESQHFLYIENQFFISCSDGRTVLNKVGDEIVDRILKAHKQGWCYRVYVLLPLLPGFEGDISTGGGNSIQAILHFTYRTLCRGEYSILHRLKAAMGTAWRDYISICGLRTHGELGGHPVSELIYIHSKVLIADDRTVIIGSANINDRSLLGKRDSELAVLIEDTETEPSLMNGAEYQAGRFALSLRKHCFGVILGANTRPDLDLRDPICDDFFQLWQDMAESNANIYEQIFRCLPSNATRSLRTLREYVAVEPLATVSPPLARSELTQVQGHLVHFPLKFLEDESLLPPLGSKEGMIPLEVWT

Chain of Latent membrane protein 1 (P03230 whole entry): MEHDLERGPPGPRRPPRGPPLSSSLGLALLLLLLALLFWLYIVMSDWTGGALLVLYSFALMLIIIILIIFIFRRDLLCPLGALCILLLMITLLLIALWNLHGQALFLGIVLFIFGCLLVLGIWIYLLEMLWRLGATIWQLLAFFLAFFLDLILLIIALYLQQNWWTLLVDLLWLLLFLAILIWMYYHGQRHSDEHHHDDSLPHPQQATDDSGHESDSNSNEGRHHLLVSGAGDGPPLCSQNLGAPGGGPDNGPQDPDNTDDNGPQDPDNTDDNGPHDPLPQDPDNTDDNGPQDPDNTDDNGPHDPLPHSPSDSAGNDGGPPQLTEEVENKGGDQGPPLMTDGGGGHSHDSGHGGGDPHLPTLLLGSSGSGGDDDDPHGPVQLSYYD

- AC50 [1]: 29.5 µM (active)
SMILES: COc1ccc(C)cc1S(=O)(=O)N(CC(=O)Nc1cc([N+](=O)[O-])ccc1C)c1ccc(C)c(C)c1

- IC50 (Caspase-3 [3]): 1.16 µM (active)
- IC50 (Caspase-3 [5]): 1.3 µM (active)
- IC50 [6]: 1.9 µM (active)
- IC50 [7]: 1.45 µM (active)
- IC50 [8]: 1.7 µM (active)
SMILES: CN(C)c1ccc(/C=C/c2noc(-c3ccccc3O)n2)cc1
- IC50 [2]: 2.1 µM (active)
- IC50 [4]: 1.42 µM (active)

SMILES: CC(C)OC(=O)c1ccc(NCc2cc(O)ccc2O)cc1Cl
- AC50 (HEK293): 10.9 µM (active)
- AC50 [1]: 9.48 µM (active)
- AC50 [9]: 2.15 µM (active)
- AC50 [10]: 33.5 µM (active)
- AC50 [11]: 4.45 µM (active)
- AC50 [12]: 6.42 µM (active)
- AC50 [13]: 17 µM (active)
- AC50 [14]: 23.6 µM (active)
- AC50 [15]: 49.2 µM (active)
- AC50 [16]: 4.76 µM (active)

SMILES: C[C@@H](CN1CCC(n2c(=O)[nH]c3ccccc32)CC1)NC(=O)c1ccc(Cl)c(Cl)c1
- IC50 (Phospholipase D1): 0.023 µM (active)
- IC50 (Phospholipase D2): 0.428 µM (active)

SMILES: O=C(NCCN1CCC2(CC1)C(=O)NCN2c1ccccc1)c1cccc(F)n1
- IC50 (Phospholipase D1): 12 µM (active)
- IC50 (Phospholipase D2): 4.46 µM (active)
